System: not listed separately
Test: pKa by UV spectrophotometric titration in POPC vesicles
Type: physicochemical
Details: apparent pKa in presence of POPC lipid bilayer, NaCl 500 mM, phosphate 5 mM
Source text: The pK a at which protonation of the imine (N2, see Fig. 3) occurs gives an indication of the optimum pH for the binding of chloride anions. This is an important consideration in anti-cancer drug development as the external pH environment of cancer cells is mildly acidic (pH 6.7)[53] compared to that of healthy cells (pH 7.2–7.5)[54]. This can be exploited to selectively target cancer cells and potentially reduce the cytotoxic effects of perenosins when used as therapeutics for anti-cancer treatment. The apparent pK a values, shown in Table 1, for compounds 1d and 2–8 were determined both in aqueous solution (pK a (aq)) and in the presence of a 1-palmitoyl-2-oleoyl-sn-glycero-3-phosphocholine (POPC) lipid bilayer membrane (pK a (mem)). UV spectrophotometric titrations were conducted by varying the pH condition from neutral to acidic with the titration of either HPF6 or HCl.
The apparent pK a values were derived from nonlinear curve fitting of the absorbance plotted against the pH; global fitting of both wavelengths corresponding to the neutral and protonated species were performed whenever feasible, see Supplementary Information for details. […]
All spectra obtained have the increasing and decreasing peaks marked with an arrow.
Isosbestic points were not observed in the titrations due to break down of the imine in acidic conditions. The breakdown product is shown, for all compounds, as the increasing absorbance peak […]
S6.2 pKa Studies in Vesicles pKa values for compounds 1d, 2, 4, 5, 7 and 8 were determined experimentally in vesicles through a […]
absorbance between the UV -Vis spectra of the protonated and the neutral species. Unilamellar vesicles were prepared using previously reported literature procedures 7-9. A lipid film of POPC (1 - palmitoyl-2-oleoyl-sn-glycero-3-phosphocholine) was prepared from a chloroform solution under reduced pressure and then dried under vacuum for 4 or more hours. The lipid film was rehydrated by vortexing with a solution of phosphate buffered (5 mM) sodium chloride (500 mM). The lipid suspension was then subjected to 9 freeze-thaw cycles and left to rest at room temperature for 30 minutes. After this, the suspension was extruded 25 times through a 400 nm polycarbonate membrane resulting in unilamellar vesicles of a mean diameter of 400 nm. The titration solution was made up to a standard volume (2500 μL, 1 mM) with the lipid (615 μL), phosphate buffered (5 mM) sodium chloride (500 mM) solution ([…]) and a transporter solution (10 μL, 25 mM), and the pH of this was noted . The UV-Vis spectra were recorded on an Agilent Cary 100 UV-Vis spectrophotometer at 25 °C with baseline correction, using standard 10 mm quartz glass cells. A baseline absorbance was measured using a solution of lipid, phosphate buffered (5 mM) sodium chloride (500 mM) and DMSO, and then the absorbance of the titration solution was measured. The pH of the solution was decreased stepwise by adding small aliquots of hydrochloric acid (0.1 mM).
(1 picture or pasted object on this page, not shown here)
After each pH decrease an absorbance measurement was taken. The absorbance at a certain wavelength (shown for each compound below) was plotted against the pH and then fitted using a dose response curve in OriginPro 9.1, where the point of inflection corresponds to the apparent pKa […]
Figure S44. Absorbance spectra taken over the course of a pH-spectrophotometric titration of 1d (25 mM) in a sodium chloride (500 mM) phosphate buffered (5 mM) lipid solution (1 mM). Inset: Abs vs. pH with dose response curve fit and the point of inflection corresponding to the p Ka value.
Figure S45. Absorbance spectra taken over the course of a pH -spectrophotometric titration of 2 (25 […]
pH with dose response curve fit with the point o f inflection corresponding to the p Ka value. […]

Row | Structure (SMILES) | pK a (mem)
1 | CCCCCc1cc(/N=C/c2[nH]c(C)cc2C)c2[nH]ccc2c1 [Perenosin 1d] | 5.42
2 | CCCCCc1cc2cc(C)cc(/N=C/c3[nH]c(C)cc3C)c2[nH]1 [Perenosin 2] | 5.85
3 | CCCc1cc2cc(C)cc(/N=C/c3[nH]c(C)cc3C)c2[nH]1 [Perenosin 4] | 6.12
4 | CCCCCc1c(C)[nH]c(/C=N/c2cc(C)cc3cc[nH]c23)c1C [Perenosin 5] | 5.81
5 | CCCCCc1cc(/N=C/c2[nH]c3ccccc3c2C)c2[nH]ccc2c1 [Perenosin 7] | 5.07
6 | CCCCCc1cc2cc(C)cc(/N=C/c3[nH]c4ccccc4c3C)c2[nH]1 [Perenosin 8] | 5.62

System: MDA-MB-231 cells
Test: MTT cell viability assay
Type: cell-based
Details: Homo sapiens; MDA-MB-231, 24 h exposure, error from three repeats in brackets; read-out: IC50 (24 h)
Procedure: Herein, we carried out further in vitro studies at the University of Barcelona for the full library of perenosins. Single dose screening for cell viability using the methylthiazoletetrazolium (MTT) colorimetric assay over five different cell lines (cancer cells MCF-7, MDA-MB-231, A549 and SW620, and non-cancerous human cells MCF-10A) was conducted.
While perenosin 5, with pentyl substituent at R3, has similar cell viability effects as 1d, bis-indole perenosin 7 with pentyl substituent at R1 has a moderate degree of late onset by a factor of 7.
S11.1 Cell Lines and Culture Conditions
The human cell lines were obtained from the American Type Culture Collection (ATCC, Manassas VA). Breast adenocarcinoma MDA-MB-231 and MCF-7 cells were maintained in DMEM:F12 media (1:1; Biological Industries, Beit Haemek, Israel), and 10 µg/ml insulin and 50 µM sodium pyruvate from Sigma-Aldrich Chemical Co. (St. Louis, MO) were added to MCF-7 cells. Lung adenocarcinoma A549 and colorectal adenocarcinoma SW620 cells were cultured in DMEM media. All were supplemented with 10% foetal bovine serum (FBS; Invitrogen-Life Technologies, Carlsbad, CA) and 100 U/mL penicillin, 100 µg/mL streptomycin and 2 mM L-glutamine, all from Biological Industries.
Mammary epithelial MCF-10A cells were maintained in DMEM:F12 media supplemented with 5% horse serum (Life Technologies), 20 ng/ml EGF, 0.5 µg/ml Hydrocortisone, 100 ng/ml Cholera toxin, 10 µg/ml insulin all from Sigma-Aldrich and 100 U/ml penicillin, 100 µg/ml streptomycin, and 2 mM L- glutamine (Biological Industries). Cells were grown at 37 °C under a 5% CO2 atmosphere.
S11.2 Cell Viability Assays
Cell viability was evaluated using the methylthiazoletetrazolium (MTT) colorimetric assay. Cancer cells (MCF-7, MDA-MB-231, A549 and SW620) or non-cancerous human cells MCF-10A cells were harvested (10^4 cells/well) in 96-well plates in a final volume of 100 µl and allowed to grow overnight.
After 24 h, vehicle solution (DMSO) or experimental compounds were added at 10 µM (single point experiment) or at different ranging concentrations (0.8-100 µM) to the assay plate and were incubated for 24 or 72 h. Then, 10 µl of MTT (5 mg/ml; Sigma-Aldrich) were added and the plates were incubated for 4 h at 37°C. 100 µl of DMSO (Sigma-Aldrich) were added to dissolve crystals and the reading was taken spectrophotometrically at 570 nm using a multi-well plate reader (Multiskan FC, Thermo Scientific, Waltham, MA, USA). Cell viability and inhibitory concentration (IC) values were obtained using GraphPad Prism v5.0 (Graphpad Software, San Diego, CA, USA). All data are shown as the mean value ± standard deviation (S.D.) of three independent experiments.

Row | Structure (SMILES) | IC50 [µM]
7 | CCCCCc1cc(/N=C/c2[nH]c(C)cc2C)c2[nH]ccc2c1 [Perenosin 1d] | 25.2
8 | CCCCCc1cc2cc(C)cc(/N=C/c3[nH]c(C)cc3C)c2[nH]1 [Perenosin 2] | > 100
9 | CCCCCc1cc2cc(C(F)(F)F)cc(/N=C/c3[nH]c(C)cc3C)c2[nH]1 [Perenosin 3] | > 100
10 | CCCc1cc2cc(C)cc(/N=C/c3[nH]c(C)cc3C)c2[nH]1 [Perenosin 4] | > 100
11 | CCCCCc1c(C)[nH]c(/C=N/c2cc(C)cc3cc[nH]c23)c1C [Perenosin 5] | 20.3
12 | CCCCCc1cc2cc(C)cc(/N=C/c3[nH]c(C)c(CCCCC)c3C)c2[nH]1 [Perenosin 6] | > 100
13 | CCCCCc1cc(/N=C/c2[nH]c3ccccc3c2C)c2[nH]ccc2c1 [Perenosin 7] | 73.8
14 | CCCCCc1cc2cc(C)cc(/N=C/c3[nH]c4ccccc4c3C)c2[nH]1 [Perenosin 8] | > 100

Same assay, conditions: Homo sapiens; MDA-MB-231, 72 h exposure, error from three repeats in brackets; read-out: IC50 (72 h)

Row | Structure (SMILES) | IC50 [µM]
15 | CCCCCc1cc(/N=C/c2[nH]c(C)cc2C)c2[nH]ccc2c1 [Perenosin 1d] | 16.6
16 | CCCCCc1cc2cc(C)cc(/N=C/c3[nH]c(C)cc3C)c2[nH]1 [Perenosin 2] | 11.3
17 | CCCCCc1cc2cc(C(F)(F)F)cc(/N=C/c3[nH]c(C)cc3C)c2[nH]1 [Perenosin 3] | 9.5
18 | CCCc1cc2cc(C)cc(/N=C/c3[nH]c(C)cc3C)c2[nH]1 [Perenosin 4] | 9.2
19 | CCCCCc1c(C)[nH]c(/C=N/c2cc(C)cc3cc[nH]c23)c1C [Perenosin 5] | 14
20 | CCCCCc1cc2cc(C)cc(/N=C/c3[nH]c(C)c(CCCCC)c3C)c2[nH]1 [Perenosin 6] | 4.2
21 | CCCCCc1cc(/N=C/c2[nH]c3ccccc3c2C)c2[nH]ccc2c1 [Perenosin 7] | 11
22 | CCCCCc1cc2cc(C)cc(/N=C/c3[nH]c4ccccc4c3C)c2[nH]1 [Perenosin 8] | 38

— PMC5570892, “Indole-based perenosins as highly potent HCl transporters and potential anti-cancer agents” (Scientific Reports, 2017)
